In patent publication US20250092003A1, “LIPID COMPOUND, COMPOSITION CONTAINING SAME AND USE” (SOUTH CHINA UNIVERSITY OF TECHNOLOGY, priority 2022, published 2025):

Key:
[1] = tested on: melanoma (B16F10-Luc) cell line capable of stably expressing firefly luciferase (Luc); assay: siLuc transfection by lipid nanoparticles into B16F10-Luc cells, firefly luciferase expression; assay type: cell-based; conditions: for siLuc transfection efficiency: lipid nanoparticles (lipid compound:DSPC:cholesterol:DSPE-PEG 38:10:50:2), siRNA 50 ng/well, N/P ratios 4:1, 8:1 and 16:1, 24 h after transfection
Description: B16F10-Luc cells were inoculated into a 96-well cell culture plate. On the next day, transfection was performed when the cells grew to about 80%.
The mother solutions were stored in a refrigerator at −20° C., diluted as needed during use, and then mixed at a molar ratio of 38:10:50:2 (lipid compounds:DSPC:cholesterol:DSPE-PEG). The siLuc was dissolved in a citrate buffer solution (pH-4), where a volume of the citrate buffer solution was two times the volume of an ethanol-lipid mixture obtained above. Finally, the citrate buffer solution containing siLuc (pH=4) and the ethanol-lipid mixture were quickly and fully mixed and then shaken and incubated at room temperature for 30 min for self-assembly to form lipid nanoparticles. The assembled lipid nanoparticles were added to the 96-well cell culture plate containing the B16F10-Luc for transfection, respectively. Before the transfection, a culture solution in the culture plate was sucked out, and 80 μL of a new culture medium was added, where an added amount of the siRNA was 50 ng/well. Nitrogen-phosphorus ratios (N/P ratio) of the protonable lipid compounds to the siRNA were 4:1, 8:1 and 16:1, respectively.
Positive control group: The siLuc was transfected by Lipo2000, a commercial transfection reagent. Transfection was performed according to an operating instruction of the Lipo2000. 50 ng of the siLuc was added to 5 μL of Opti-MEM, and 0.3 μL of the Lipo2000 was added to another 50 μL of Opti-MEM. Finally, an siRNA Opti-MEM solution was added to a Lipo2000 Opti-MEM solution, evenly mixed, incubated at room temperature for 15 min, and then added to a 96-well cell culture plate. Before the transfection, a culture solution in the culture plate was sucked out, and 80 μL of a new culture medium was added, where an added amount of the siRNA was 50 ng/well.
Negative control group: Only the B16F10-Luc cells were used without transfection.
After the transfection was performed for 24 h, the cells were lysed and subjected to centrifugation to remove cell debris and contents, a supernatant was taken, a firefly luciferase substrate was added, and an expression amount of firefly luciferase was determined so as to compare the siLuc transfection efficiency of the synthesized lipid compounds.
The mother solutions were stored in a refrigerator at −20° C., diluted as needed during use, and then mixed at a molar ratio of 38:10:50:2 (lipid compounds:DSPC:cholesterol:DSPE-PEG). The siLuc was dissolved in a citrate buffer solution (pH=4), where a volume of the citrate buffer solution was two times the volume of an ethanol-lipid mixture obtained above. […]

293T cell line = assay: plasmid DNA (pDNA-GFP-Luc) transfection by lipid nanoparticles into 293T cells; assay type: cell-based; conditions: pDNA-GFP-Luc 80 ng/well, N/P ratios 8:1, 16:1 and 32:1, 48 h after transfection

SMILES | inhibition of gene expression of the firefly luciferase ([1]; lipid nanoparticles with siLuc, N/P ratios 4:1 to 32:1, 24 h after transfection) | plasmid transfection efficiency (firefly luciferase expression) compared with PEI (293T cell line) | siLuc transfection efficiency [1]
CCCCCCCCCCCC(=O)OCC(O)CN(CCN(CCN(CC(O)COC(=O)CCCCCCCCCCC)CC(O)COC(=O)CCCCCCCCCCC)CCN(CC(O)COC(=O)CCCCCCCCCCC)CC(O)COC(=O)CCCCCCCCCCC)CC(O)COC(=O)CCCCCCCCCCC (centres unmarked) [A12-C12] | almost completely inhibited | equivalent to that of the commercial reagent PEI | 
CCCCCCCCCCCCCCCC(=O)OCC(O)CN(CCCN1CCCC1)CC(O)COC(=O)CCCCCCCCCCCCCCC (centres unmarked) [A2-C16] |  |  | about 95%
CCCCCCCCCCCC(=O)OCC(O)CN(CCCN(C)C)CC(O)COC(=O)CCCCCCCCCCC (centres unmarked) [A1-C12] |  |  | about 95%
CCCCCCCCCCCC(=O)OCC(O)CN(CCCN1CCCC1)CC(O)COC(=O)CCCCCCCCCCC (centres unmarked) [A2-C12] |  |  | about 95%
